We go through one compound from patent US10407421B2, “Bicyclic aryl monobactam compounds and methods of use thereof for the treatment of bacterial infections” (priority 2016, dated 2019).

Counter-ions that a name gives are not always drawn.

Type in all cases: cell-based
Settings in all cases: in the presence of β lactamase inhibitor Relebactam 4 μg/mL; 22 hours at 35±2° C.; lowest concentration inhibiting 95% of growth (OD600)

In test [1] the test system is Klebsiella pneumoniae expressing KPC-1 (CL6569). Briefly: Growth inhibitory concentration (OD600), Klebsiella pneumoniae CL6569. As for the experimental part:
(§1) Antibiotic Activity: Determination of Growth Inhibitory Concentration
(§2) The concentrations of compounds required to inhibit the growth of various strains of bacteria were determined in an assay that assessed bacterial growth by measuring optical density at 600 nm (OD600). The bacterial strains tested included the clinical strains Escherichia coli expressing NDM-1 (CLB30016), Klebsiella pneumoniae expressing KPC-1 (CL6569), Acinetobacter baumannii expressing TEM-1, AmpC, and Oxa-24/40 (CL6188) and Pseudomonas aeruginosa expressing AmpC (CL5701). All compounds were tested in the presence of a β lactamase inhibitor (BLi, Relebactam) in 384-well microplates. The clinical strains were stored as frozen single use stocks, thawed and diluted into 1.1× cation-adjusted Mueller-Hinton II broth to achieve approximately 2×10^5 CFU/mL. Test compounds were dissolved in DMSO and diluted 1:50 in the assay, resulting in a final concentration range of 100 μM to 0.098 μM. […] At the end of the incubation, absorbance at 600 nm was determined using a spectrophotometer. Inhibition was quantitated by identifying the lowest concentration of test compound that was required to inhibit 95% of the growth of the bacteria. The results for Examples 1-73 are reported in Table I, expressed as the concentration of compound that inhibited 95% of bacterial growth (Minimum Inhibitory Threshold Concentration; MITC95).

For test [2], the system named is Acinetobacter baumannii expressing TEM-1, AmpC, and Oxa-24/40 (CL6188). Kind of test: Growth inhibitory concentration (OD600), Acinetobacter baumannii CL6188. As for the experimental part: as §1, §2
Test [3] has as its system Escherichia coli expressing NDM-1 (CLB30016). Kind of test: Growth inhibitory concentration (OD600), Escherichia coli CLB30016. As for the experimental part:
as §1, §2

In test [4] the test system is Pseudomonas aeruginosa expressing AmpC (CL5701). Briefly: Growth inhibitory concentration (OD600), Pseudomonas aeruginosa CL5701. On the procedure: as §1, §2

`C[n+]1c2ccc(OC[C@H](O/N=C(\C(=O)N[C@@H]3C(=O)N(OS(=O)(=O)[O-])C3(C)C)c3csc(N)n3)C(=O)O)cc2cn1C[C@H](O)CN` [Example 51, (S)-3-((Z)-2-(((S)-2-((2-((R)-3-amino-2-hydroxypropyl)-1-methyl-2H-indazol-1-ium-5-yl)oxy)-1-carboxyethoxy)imino)-2-(2-aminothiazol-4-yl)acetamido)-2,2-dimethyl-4-oxoazetidin-1-yl Sulfate]: the “KP_CL6569 MITC95” value in test [1] is 0.78 µM. For the same compound, the “AB_CL6188 MITC95” value in test [2] was found to be 6.25 µM. The “EC_CLB30016 MITC95” value in test [3] turned out to be 25 µM. Moreover, the “PA_CL5701 MITC95” value in test [4] worked out at 12.5 µM.
